Experimental data as given in ChEMBL document CHEMBL5226360, “Pseudoprolines as stereoelectronically tunable proline isosteres” (Bioorg Med Chem Lett, 2022).
Starred links: 1 amine or outer side, 2 acyl side, 3 side chain; linkers in the order of their positions; H or OH if unused. Non-standard residues stand in square brackets, D forms with d. Residues, ends and D or L forms follow the SMILES beside them. X3 = O=C1C[C@](Cc2ccc(O)cc2)(N[*:1])[C@@H]2SC[C@@H](C(=O)[*:2])N12; X4 = O=C1C[C@](Cc2ccc(O)cc2)(N[*:1])[C@H]2SC[C@@H](C(=O)[*:2])N12; X1 = CC1(C)SC[C@@H](C(=O)[*:2])N1[*:1]; X2 = CC1(C)OC[C@@H](C(=O)[*:2])N1[*:1]; Thz = O=C(O)[C@@H]1CSCN1

What was measured:
Periplaneta americana [1] = assay: Diuretic activity in Periplaneta americana assessed as hindgut contraction by measuring maximal response incubated for 5 mins by myotropic assay relative to control; assay type: functional
Periplaneta americana [2] = assay: Diuretic activity in Periplaneta americana assessed as hindgut contraction by measuring lasting time incubated for 5 mins by myotropic assay; assay type: functional
Periplaneta americana [3] = assay: Diuretic activity in Periplaneta americana assessed as hindgut contraction incubated for 5 mins by myotropic assay; assay type: functional
[4] = target: T1, Type-1 angiotensin II receptor A (Rattus norvegicus, UniProt P25095); assay: Displacement of [I125I]AngII form AT1 receptor in rat liver membrane incubated for 1.5 hrs by gamma counting method; assay type: cell membranes
T1 sequence (P25095 whole entry): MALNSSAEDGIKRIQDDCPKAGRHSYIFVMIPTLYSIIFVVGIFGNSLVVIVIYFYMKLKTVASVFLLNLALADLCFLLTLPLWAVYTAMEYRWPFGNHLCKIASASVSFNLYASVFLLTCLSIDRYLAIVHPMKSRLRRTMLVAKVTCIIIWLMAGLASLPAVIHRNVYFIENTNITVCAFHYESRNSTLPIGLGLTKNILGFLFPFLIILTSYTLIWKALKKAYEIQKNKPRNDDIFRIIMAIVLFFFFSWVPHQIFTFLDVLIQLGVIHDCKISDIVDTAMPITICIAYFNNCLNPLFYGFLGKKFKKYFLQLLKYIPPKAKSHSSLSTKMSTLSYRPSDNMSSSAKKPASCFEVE

[5] = target: T2, Type-2 angiotensin II receptor (Rattus norvegicus, UniProt P35351); assay: Displacement of [I125I]AngII form AT2 receptor in rat liver membrane incubated for 1.5 hrs by gamma counting method; assay type: cell membranes
T2 sequence (P35351 whole entry): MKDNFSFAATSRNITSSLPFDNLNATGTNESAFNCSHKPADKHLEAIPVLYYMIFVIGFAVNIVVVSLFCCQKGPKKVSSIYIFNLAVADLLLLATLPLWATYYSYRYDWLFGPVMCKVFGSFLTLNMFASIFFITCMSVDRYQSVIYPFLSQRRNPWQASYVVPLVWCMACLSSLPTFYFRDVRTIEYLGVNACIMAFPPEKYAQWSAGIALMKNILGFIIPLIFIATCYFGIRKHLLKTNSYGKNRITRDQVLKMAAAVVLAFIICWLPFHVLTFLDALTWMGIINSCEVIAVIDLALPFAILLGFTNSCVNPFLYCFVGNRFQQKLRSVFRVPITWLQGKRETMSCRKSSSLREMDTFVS

[6] = target: Neurotensin receptor type 2 (Homo sapiens, UniProt O95665); assay: Inhibition of human NTR2
[7] = Octanol-water partition coefficient, logP of the compound; assay type: physicochemical
[8] = target: Human immunodeficiency virus type 1 protease (Human immunodeficiency virus 1, UniProt Q72874); assay: Inhibition of HIV1 protease
[9] = Oral bioavailability in dog at 3 mg/kg; assay type: ADME, organism-based, Canis lupus familiaris; details: in vivo
[10] = Half life in monkey at 3 mg/kg, po or iv; assay type: ADME, organism-based, Macaca mulatta; details: rhesus monkey, in vivo
[11] = Clearance in monkey at 3 mg/kg, iv; assay type: ADME, organism-based, Macaca mulatta; details: rhesus monkey, in vivo
[12] = Volume of distribution at steady state in dog at 3 mg/kg, iv; assay type: ADME, organism-based, Canis lupus familiaris; details: in vivo, read-out: Vdss
[13] = Volume of distribution at steady state in monkey at 3 mg/kg, iv; assay type: ADME, organism-based, Macaca mulatta; details: rhesus monkey, in vivo, read-out: Vdss
[14] = Clearance in dog at 3 mg/kg, iv; assay type: ADME, organism-based, Canis lupus familiaris; details: in vivo
[15] = Oral bioavailability in monkey at 3 mg/kg; assay type: ADME, organism-based, Macaca mulatta; details: rhesus monkey, in vivo
[16] = Clearance in rat at 10 mg/kg, iv; assay type: ADME, organism-based; details: in vivo
[17] = Metabolic stability in pooled human liver microsomes assessed as parent compound remaining measured after 1 hr; assay type: ADME, Microsome; details: read-out: Stability
[18] = Oral bioavailability in rat at 10 mg/kg; assay type: ADME, organism-based; details: in vivo
[19] = Half life in dog at 3 mg/kg, po or iv; assay type: ADME, organism-based, Canis lupus familiaris; details: in vivo
[20] = Volume of distribution at steady state in rat at 10 mg/kg, iv; assay type: ADME, organism-based; details: in vivo, read-out: Vdss
[21] = Half life in rat at 10 mg/kg, po or iv; assay type: ADME, organism-based; details: in vivo
[22] = Oral bioavailability in rat at 2 mg/kg; assay type: ADME, organism-based; details: in vivo
Dipeptidyl peptidase 4 = Dipeptidyl peptidase 4 (Homo sapiens, UniProt P27487); assay: Inhibition of DPP4 (unknown origin)
[23] = Half life in rat at 2 mg/kg, po; assay type: ADME, organism-based; details: in vivo
[24] = target: D(2) dopamine receptor (Homo sapiens) (UniProt P14416); details: dose 1.0 10^-8M
[25] = Tmax in rat at 10 mg/kg, ID; assay type: ADME, organism-based; details: in vivo
[26] = Half life in rat at 10 mg/kg, iv; assay type: ADME, organism-based; details: in vivo
[27] = Bioavailability in rat under fasted condition at 10 mg/kg, ID; assay type: ADME, organism-based; details: in vivo
[28] = Bioavailability in rat under fed condition at 10 mg/kg, ID; assay type: ADME, organism-based; details: in vivo
[29] = target: Angiotensin-converting enzyme (Homo sapiens, UniProt P12821); assay: Inhibition of ACE (unknown origin)
[30] = target: D(2) dopamine receptor (Homo sapiens) (UniProt P14416); details: dose 1.0 10^-7M
Prolyl endopeptidase = target: T3, Prolyl endopeptidase (Homo sapiens, UniProt P48147); assay: Inhibition of POP (unknown origin)
T3 sequence (P48147 whole entry): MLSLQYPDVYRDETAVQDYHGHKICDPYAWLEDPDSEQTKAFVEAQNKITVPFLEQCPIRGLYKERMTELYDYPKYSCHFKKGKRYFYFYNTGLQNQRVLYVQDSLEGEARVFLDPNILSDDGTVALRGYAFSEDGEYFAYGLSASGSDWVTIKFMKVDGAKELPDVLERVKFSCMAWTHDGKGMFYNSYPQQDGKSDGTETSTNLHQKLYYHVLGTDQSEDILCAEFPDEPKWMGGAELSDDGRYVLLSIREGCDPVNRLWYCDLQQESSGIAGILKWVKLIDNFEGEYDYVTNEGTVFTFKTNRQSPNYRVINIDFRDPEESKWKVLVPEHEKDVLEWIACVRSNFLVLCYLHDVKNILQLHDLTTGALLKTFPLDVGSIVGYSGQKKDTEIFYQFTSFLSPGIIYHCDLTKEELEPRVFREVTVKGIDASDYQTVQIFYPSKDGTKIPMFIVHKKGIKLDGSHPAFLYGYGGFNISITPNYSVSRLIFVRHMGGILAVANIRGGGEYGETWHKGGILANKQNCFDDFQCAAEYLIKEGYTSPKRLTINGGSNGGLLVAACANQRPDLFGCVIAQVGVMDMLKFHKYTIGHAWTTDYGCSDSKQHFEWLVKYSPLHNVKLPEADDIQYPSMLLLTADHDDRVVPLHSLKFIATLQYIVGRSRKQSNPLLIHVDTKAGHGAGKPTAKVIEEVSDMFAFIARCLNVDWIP

Angiotensin-converting enzyme, sequence (P12821 whole entry): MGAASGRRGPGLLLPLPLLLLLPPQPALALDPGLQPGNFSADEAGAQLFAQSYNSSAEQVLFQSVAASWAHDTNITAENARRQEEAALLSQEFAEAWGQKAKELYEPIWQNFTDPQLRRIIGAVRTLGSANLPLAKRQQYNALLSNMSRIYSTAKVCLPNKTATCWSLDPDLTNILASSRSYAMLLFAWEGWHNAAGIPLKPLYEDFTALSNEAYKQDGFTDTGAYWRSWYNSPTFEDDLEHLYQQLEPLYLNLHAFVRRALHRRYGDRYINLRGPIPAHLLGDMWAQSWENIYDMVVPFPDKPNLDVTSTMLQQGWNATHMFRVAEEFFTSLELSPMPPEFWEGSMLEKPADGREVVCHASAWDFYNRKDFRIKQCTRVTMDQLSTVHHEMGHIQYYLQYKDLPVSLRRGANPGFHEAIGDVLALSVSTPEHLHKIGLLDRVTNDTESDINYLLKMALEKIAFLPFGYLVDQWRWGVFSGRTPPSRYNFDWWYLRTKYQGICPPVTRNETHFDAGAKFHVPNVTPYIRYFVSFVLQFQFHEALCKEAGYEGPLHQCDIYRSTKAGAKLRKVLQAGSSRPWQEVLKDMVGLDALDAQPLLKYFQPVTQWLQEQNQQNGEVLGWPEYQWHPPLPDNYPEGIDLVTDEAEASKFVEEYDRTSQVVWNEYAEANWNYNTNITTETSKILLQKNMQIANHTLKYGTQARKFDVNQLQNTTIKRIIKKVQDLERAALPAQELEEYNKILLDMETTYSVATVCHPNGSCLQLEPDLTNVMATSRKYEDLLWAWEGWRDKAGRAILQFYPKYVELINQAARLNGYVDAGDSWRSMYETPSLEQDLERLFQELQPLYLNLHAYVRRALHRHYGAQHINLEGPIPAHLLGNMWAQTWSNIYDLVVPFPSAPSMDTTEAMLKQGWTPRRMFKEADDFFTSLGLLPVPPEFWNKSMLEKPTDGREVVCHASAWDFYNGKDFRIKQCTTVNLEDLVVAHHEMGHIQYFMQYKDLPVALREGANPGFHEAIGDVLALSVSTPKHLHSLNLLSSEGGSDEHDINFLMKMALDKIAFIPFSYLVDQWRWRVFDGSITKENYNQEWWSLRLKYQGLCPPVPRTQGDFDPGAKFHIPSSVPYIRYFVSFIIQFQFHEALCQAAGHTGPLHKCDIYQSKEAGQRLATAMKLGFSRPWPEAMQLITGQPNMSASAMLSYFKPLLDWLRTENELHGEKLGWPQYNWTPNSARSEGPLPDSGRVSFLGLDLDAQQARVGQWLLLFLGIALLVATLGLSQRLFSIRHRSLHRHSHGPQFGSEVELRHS
Neurotensin receptor type 2, sequence (O95665 whole entry): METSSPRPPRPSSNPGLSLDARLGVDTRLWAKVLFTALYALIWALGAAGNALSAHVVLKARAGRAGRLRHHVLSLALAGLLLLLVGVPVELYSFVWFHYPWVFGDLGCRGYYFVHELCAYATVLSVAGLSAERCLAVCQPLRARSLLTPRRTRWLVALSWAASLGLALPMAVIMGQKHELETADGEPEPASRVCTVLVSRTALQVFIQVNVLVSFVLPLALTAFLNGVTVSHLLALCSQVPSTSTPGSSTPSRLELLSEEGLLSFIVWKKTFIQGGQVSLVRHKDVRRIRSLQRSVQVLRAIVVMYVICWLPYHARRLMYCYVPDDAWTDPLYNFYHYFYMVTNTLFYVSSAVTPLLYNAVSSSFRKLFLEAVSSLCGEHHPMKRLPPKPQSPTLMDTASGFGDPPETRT
D(2) dopamine receptor (Homo sapiens), sequence (P14416 whole entry): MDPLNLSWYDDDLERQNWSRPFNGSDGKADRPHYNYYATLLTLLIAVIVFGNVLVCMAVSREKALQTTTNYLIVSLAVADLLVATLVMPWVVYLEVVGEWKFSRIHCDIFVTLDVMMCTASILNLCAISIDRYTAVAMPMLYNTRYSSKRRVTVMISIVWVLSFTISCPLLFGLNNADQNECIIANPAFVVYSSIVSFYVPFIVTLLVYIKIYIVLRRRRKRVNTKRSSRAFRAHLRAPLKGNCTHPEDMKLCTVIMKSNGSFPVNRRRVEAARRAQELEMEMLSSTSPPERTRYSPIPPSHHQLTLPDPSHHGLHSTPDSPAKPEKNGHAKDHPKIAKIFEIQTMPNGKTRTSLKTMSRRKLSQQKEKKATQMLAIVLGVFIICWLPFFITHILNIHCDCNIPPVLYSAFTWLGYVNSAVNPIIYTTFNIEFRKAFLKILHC
Dipeptidyl peptidase 4, sequence (P27487 whole entry): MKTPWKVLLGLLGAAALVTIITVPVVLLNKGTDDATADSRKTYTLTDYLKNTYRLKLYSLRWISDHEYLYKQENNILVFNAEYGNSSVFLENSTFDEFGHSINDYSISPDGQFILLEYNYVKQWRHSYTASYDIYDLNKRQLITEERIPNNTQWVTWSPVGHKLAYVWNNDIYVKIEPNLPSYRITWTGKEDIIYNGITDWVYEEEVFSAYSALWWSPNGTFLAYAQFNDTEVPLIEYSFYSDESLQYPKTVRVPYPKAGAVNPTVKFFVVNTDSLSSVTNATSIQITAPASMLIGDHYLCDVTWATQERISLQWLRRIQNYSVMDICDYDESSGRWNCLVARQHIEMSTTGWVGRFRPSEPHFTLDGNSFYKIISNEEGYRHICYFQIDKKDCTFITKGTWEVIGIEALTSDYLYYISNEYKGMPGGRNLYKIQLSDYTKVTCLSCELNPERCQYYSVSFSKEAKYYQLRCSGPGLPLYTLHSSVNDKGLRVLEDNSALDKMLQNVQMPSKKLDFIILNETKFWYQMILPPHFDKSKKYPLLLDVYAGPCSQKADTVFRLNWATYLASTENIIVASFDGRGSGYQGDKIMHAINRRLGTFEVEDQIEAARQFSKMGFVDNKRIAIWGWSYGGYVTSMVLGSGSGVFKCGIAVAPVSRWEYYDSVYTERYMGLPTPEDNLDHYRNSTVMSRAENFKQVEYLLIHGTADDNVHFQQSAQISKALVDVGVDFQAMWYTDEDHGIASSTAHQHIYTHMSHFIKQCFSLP

CC1(C)SC[C@@H](C(=O)N[C@@H](Cc2c[nH]c3ccccc23)C(=O)NCC(N)=O)N1C(=O)[C@H](Cc1ccccc1)NC(=O)[C@@H](N)Cc1ccccc1 (H-FF[X1]WG-NH2)
Activity (Periplaneta americana [1]): 100.6% | Time (Periplaneta americana [2]): 108 s | EC50 (Periplaneta americana [3]): 0.708 nM

CC(C)C[C@H](NC(=O)[C@H](CCCNC(=N)N)NC(=O)[C@@H](N)CC(=O)O)C(=O)N[C@@]1(Cc2ccc(O)cc2)CC(=O)N2[C@H]1SC[C@H]2C(=O)N[C@@H](Cc1c[nH]cn1)C(=O)N1CCC[C@H]1C(=O)N[C@@H](Cc1ccccc1)C(=O)O (H-DRL[X3]HPF-OH)
Ki [4]: > 10000 nM | Ki [5]: 1 nM

CC[C@H](C)[C@H](NC(=O)[C@H](Cc1ccc(O)cc1)NC(=O)[C@@H]1C[Si](C)(C)CN1C(=O)[C@H](CCCCN)NC(=O)[C@@H](N)CCCCN)C(=O)N[C@@H](CC(C)C)C(=O)O
IC50 [6]: 5 nM

O=C(O)[C@@H]1CCCN1C(=O)OCC1c2ccccc2-c2ccccc21
logP [7]: 0.094

C[Si]1(C)C[C@@H](C(=O)O)N(C(=O)OCC2c3ccccc3-c3ccccc32)C1
logP [7]: 1.3

CC(C)(C)NC(=O)[C@@H]1CCCN1C(=O)[C@@H](O)[C@H](Cc1ccccc1)NC(=O)[C@H](CC(N)=O)NC(=O)OCc1ccccc1
IC50 [8]: 89 nM

CSC[C@H](NC(=O)COc1cccc2cnccc12)C(=O)N[C@@H](Cc1ccccc1)[C@H](O)C(=O)N1CSC[C@H]1C(=O)NC(C)(C)C
IC50 [8]: 6.5 nM | Ki [8]: 0.74 nM

NC(=O)CNC(=O)[C@H](Cc1c[nH]c2ccccc12)NC(=O)[C@@H]1CSCN1C(=O)[C@H](Cc1ccccc1)NC(=O)[C@@H](N)Cc1ccccc1 (H-FF[Thz]WG-NH2)
Activity (Periplaneta americana [1]): 71.5% | Time (Periplaneta americana [2]): 78 s | EC50 (Periplaneta americana [3]): 0.736 nM

NC(=O)CNC(=O)[C@H](Cc1c[nH]c2ccccc12)NC(=O)[C@@H]1CCCN1C(=O)[C@H](Cc1ccccc1)NC(=O)[C@@H](N)Cc1ccccc1 (H-FFPWG-NH2)
Activity (Periplaneta americana [1]): 66.8% | Time (Periplaneta americana [2]): 72 s | EC50 (Periplaneta americana [3]): 0.794 nM

CC(C)[C@@H](Nc1ccc(CNC(=O)[C@@H]2SCCN2C(=O)C[C@H](N)Cc2cc(F)c(F)cc2F)cc1)C(=O)O
bioavailability [9]: < 2.5% | half-life [10]: > 3 h | clearance [11]: 16.7 mL/min/kg | Vd [12]: 0.3 L/kg | Vd [13]: 0.3 L/kg | clearance [14]: 16.7 mL/min/kg | bioavailability [15]: < 2.5% | clearance [16]: 16.7 mL/min/kg | remaining at 1 h [17]: 98.9% | bioavailability [18]: < 2.5% | half-life [19]: > 3 h | Vd [20]: 0.3 L/kg | half-life [21]: > 3 h

CC(C)[C@H](Nc1ccc(CNC(=O)[C@@H]2CCCN2C(=O)C[C@H](N)Cc2cc(F)ccc2F)cc1)C(=O)O
bioavailability [22]: 1.2% | IC50 (Dipeptidyl peptidase 4): 0.48 nM | half-life [23]: 0.63 h

CC(C)(C)NC(=O)[C@H]1N(C(=O)[C@@H](O)[C@H](Cc2ccccc2)NC(=O)[C@H](CC(N)=O)NC(=O)COc2cccc3ccccc23)CSC1(C)C
IC50 [8]: 2.8 nM

CC1(C)OC[C@@H](C(=O)N[C@@H](Cc2c[nH]c3ccccc23)C(=O)NCC(N)=O)N1C(=O)[C@H](Cc1ccccc1)NC(=O)[C@@H](N)Cc1ccccc1 (H-FF[X2]WG-NH2)
Activity (Periplaneta americana [1]): 120.1% | Time (Periplaneta americana [2]): 120 s | EC50 (Periplaneta americana [3]): 0.614 nM

NC(=O)[C@H]1CS[C@@H]2CC[C@]3(CCCN3C(=O)[C@@H]3CCCN3)C(=O)N12
inhibition [24]: 14.6%

Cc1ccccc1CNC(=O)[C@H]1N(C(=O)[C@@H](O)[C@H](Cc2ccccc2)NC(=O)c2cccc(O)c2C)CSC1(C)C
Tmax [25]: 1 h | half-life [26]: 1.55 h | bioavailability [27]: 33% | bioavailability [28]: 33%

CC(C)(C)NC(=O)[C@@H]1CSCN1C(=O)[C@@H](O)[C@H](Cc1ccccc1)NC(=O)[C@H](CC(N)=O)NC(=O)COc1cccc2ccccc12
IC50 [8]: 8.8 nM

CC(C)C[C@H](NC(=O)[C@H](CCCNC(=N)N)NC(=O)[C@@H](N)CC(=O)O)C(=O)N[C@@]1(Cc2ccc(O)cc2)CC(=O)N2[C@H](C(=O)N[C@@H](Cc3c[nH]cn3)C(=O)N3CCC[C@H]3C(=O)N[C@@H](Cc3ccccc3)C(=O)O)CS[C@@H]21 (H-DRL[X4]HPF-OH)
Ki [4]: > 10000 nM | Ki [5]: 3.7 nM

CC[C@H](C)[C@H](NC(=O)[C@H](Cc1ccc(O)cc1)NC(=O)[C@@H]1CCCN1C(=O)[C@H](CCCCN)NC(=O)[C@@H](N)CCCCN)C(=O)N[C@@H](CC(C)C)C(=O)O
IC50 [6]: 0.47 nM

C[C@H](CS)C(=O)N1CCS[C@H]1C(=O)O
IC50 [29]: 832 nM

CC(C)(C)NC(=O)[C@@H]1CSCN1C(=O)[C@@H](O)[C@H](Cc1ccccc1)NC(=O)[C@H](CC(N)=O)NC(=O)OCc1ccccc1
IC50 [8]: 31 nM

C[C@H](CS)C(=O)N1CSC[C@H]1C(=O)O
IC50 [29]: 372 nM

NC(=O)[C@@H]1CS[C@@H]2CC[C@]3(CCCN3C(=O)[C@@H]3CCCN3)C(=O)N21
inhibition [30]: 21.4%

CC(C)[C@H](Nc1ccc(CNC(=O)[C@@H]2CSCN2C(=O)C[C@H](N)Cc2cc(F)ccc2F)cc1)C(=O)O
bioavailability [9]: < 2.5% | bioavailability [15]: < 2.5% | bioavailability [18]: < 2.5% | IC50 (Dipeptidyl peptidase 4): 0.3 nM

N#C[C@@H]1CS[C@H]2C[C@H](NC(=O)OCc3ccccc3)C(=O)N12
IC50 (Prolyl endopeptidase): 100000 nM
